“And” between values parts separate entries of the source, which are not always exact repeats. Equal values may be shown once.
Target: T1, dopamine transporter (Homo sapiens, UniProt Q01959)
T1 construct: dynamic SPECT in Parkinson's subjects and similarly aged healthy control subjects; from tissue; host or cells: striatum (caudate and putamen) of living subjects, imaged in vivo
Assay: 123I Altropane dynamic SPECT imaging of striatal dopamine transporter in Parkinson's disease and healthy control subjects
Type: in vivo
Details: for Mean % test/retest difference: 15 PD subjects; for Total striatal binding ratio, Ratio (3-6): individual PD scans (paired test/retest), mean of scans 3-6, about 30 min from about 15 min post injection; for Peak Striatal:Occipital Ratio (peak SBR): single scan with highest uptake, 8 mCi i.v.
Description: The following example summarizes single photon emission computed tomographic (SPECT) image acquisition, analysis methods and results for Parkinson's disease research participants and healthy controls participating in an ^123I Altropane SPECT imaging study. The experiment is an open label study evaluating time-activity curves and striatal dopamine transporter occupancy over the first hour post injection of ^123I Altropane using temporally well-resolved dynamic SPECT in Parkinson's subjects and similarly aged healthy control subjects. In addition, for the PD subjects, a second injection and scan is performed on each subject on a separate test days to evaluate the test/retest reproducibility data for both visual and quantitative analyses.
Fifteen idiopathic Parkinson's disease subjects are recruited through local advertising and word-of-mouth for enrollment in the study. Imaging is performed at Molecular NeuroImaging, LLC in New Haven, Conn., USA. ^123I Altropane is studied under the auspices of a physician-sponsored IND # 76,024, Dr. J. Seibyl physician sponsor using test article provided by MDS Nordion, Inc (Vancouver, BC, Canada). All subjects are provided informed consent prior to any study procedures. All fifteen subjects completed two separate injection and SPECT scan sessions with approximately 296 mBq (8 mCi) of ^123I Altropane. Subjects undergo motor ratings using the Unified Parkinson's Disease Rating Scale (UPDRS) following overnight period without anti-Parkinson medication administered by a movement disorder specialist. No PD subjects are terminated prior to achieving the study endpoint.
Twelve healthy control subjects are recruited for participation in a single scan session with ^123I Altropane using the identical SPECT image acquisition protocol as the PD subjects. Healthy subjects are evaluated by a movement disorder specialist to confirm the absence of neurologic illness.
SPECT scans are acquired for 60 minutes following the intravenous injection with 296 mBq (8.0 mCi) of ^123I Altropane. A series of dynamic SPECT scans are obtained as five scans at 6 minutes per acquisition followed by three scans at 10 minutes per acquisition. The subject remain in the camera for the duration of the acquisition. Each SPECT study is acquired on a Philips PRISM 3000XP triple-headed SPECT camera (Cleveland, Ohio, USA) fitted with fan-beam collimators. Each head rotates 360 degrees, sampling every 3 degrees for a total of 120 raw projection images per head. Projection data were collected in a 128×128 matrix within a symmetric energy window centered at 159 kEv (+/−10%).
Data are re-constructed using filtered back projection and a simple ramp filter followed by a post hoc (3-D) standardized low pass filter. Attenuation correction was performed applying a Chang 0 correction and a mu of 0.11 cm^−1 using a standard or custom automated software package. Regions of interest (ROIs) are placed in the 3-head data with individual ROI sampling of the left and right caudate and putamen and an occipital background region. The ROIs were then applied to all images in the injection session (total of 24=8 time points×3 head conditions (1, 1&2, 1&2&3). To check for head movement within each scan session, five external skin fiducial markers containing 1 μCi of ^123I were place along the canthomeatal line (2 right side, 3 left side) prior to each SPECT scan. Total counts within the ROI, total volume, and count density (counts/voxel) were extracted from each scan and logged in a data spreadsheet for determination of striatal uptake ratios (SBR) defined as the density of counts (counts per voxel per minute) in the striatal region divided by the density of counts in the occipital background region. The mean striatal SBR scores were calculated as the mean of the left and right caudate and putamen SBR scores. Since sampling in striatal subregions used the identical size ROI, there was equal contribution from left and right caudate and putamen to the mean SBR. […]

T1 sequence (Q01959 whole entry): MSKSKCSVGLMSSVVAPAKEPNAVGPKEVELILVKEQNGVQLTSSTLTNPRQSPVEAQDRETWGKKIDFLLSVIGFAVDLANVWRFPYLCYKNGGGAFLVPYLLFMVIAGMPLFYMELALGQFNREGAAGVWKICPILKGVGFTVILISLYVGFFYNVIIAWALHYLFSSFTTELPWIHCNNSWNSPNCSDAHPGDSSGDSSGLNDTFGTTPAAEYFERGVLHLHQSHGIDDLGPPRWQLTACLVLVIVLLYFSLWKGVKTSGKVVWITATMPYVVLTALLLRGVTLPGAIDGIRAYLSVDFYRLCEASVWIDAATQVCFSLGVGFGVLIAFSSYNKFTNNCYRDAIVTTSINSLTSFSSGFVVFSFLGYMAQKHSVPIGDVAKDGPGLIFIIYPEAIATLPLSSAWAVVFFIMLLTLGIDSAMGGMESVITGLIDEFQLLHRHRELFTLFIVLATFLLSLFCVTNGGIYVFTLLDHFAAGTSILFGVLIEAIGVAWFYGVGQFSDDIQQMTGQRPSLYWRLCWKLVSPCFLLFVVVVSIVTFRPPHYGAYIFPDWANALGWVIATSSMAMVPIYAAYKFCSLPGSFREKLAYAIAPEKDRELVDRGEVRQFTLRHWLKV

COC(=O)C1C(c2ccc(F)cc2)CC2CCC1N2C/C=C/I (stereo not drawn) [123I Altropane, 2β-carbomethoxy-3β-(4′-flurophenyl)-N-(3-iodo-E-allyl) nortropane]
Mean % test/retest difference (1 head): 4.94% | Mean % test/retest difference (2 heads): 5.11% | Mean % test/retest difference (3 heads): 5.14% | time post injection of relative stability of binding ratios (a PD and a control subject, FIG. 3): about 15 minutes | time post injection by which washout rates from striatum and occipital background are similar (stable striatal binding ratio) (all subjects): 20 to 30 min | time of peak striatal count densities post-injection (controls and PD subjects, bolus injection): 10 min | Total striatal binding ratio, Ratio (3-6) (1 head): 1.29 (4×) and 1.23 and 1.30 (2×) and 1.26 (3×) and 1.25 (3×) and 1.22 (2×) and 1.37 (2×) and 1.40 and 1.48 and 1.20 (2×) and 1.16 and 1.32 and 1.35 and 1.21 (2×) and 1.12 and 1.28 and 1.17 and 1.24 | Total striatal binding ratio, Ratio (3-6) (2 heads): 1.29 and 1.27 (3×) and 1.35 and 1.37 and 1.31 and 1.32 (4×) and 1.30 and 1.36 and 1.43 and 1.47 and 1.60 and 1.25 and 1.21 and 1.19 and 1.38 (2×) and 1.40 and 1.24 (2×) and 1.12 and 1.26 and 1.33 (2×) and 1.20 and 1.45 | Total striatal binding ratio, Ratio (3-6) (3 heads): 1.32 and 1.30 (2×) and 1.39 and 1.41 and 1.33 and 1.36 (2×) and 1.35 (2×) and 1.38 and 1.45 and 1.56 and 1.70 and 1.37 (2×) and 1.28 and 1.23 and 1.20 and 1.42 (2×) and 1.44 and 1.26 and 1.15 and 1.29 and 1.31 and 1.22 and 1.50 and 1.40 and 1.27 | Peak Striatal:Occipital Ratio (peak SBR) (individual PD subjects, 1 head reconstruction): 1.29 (2×) and 1.24 (2×) and 1.22 and 1.35 and 1.41 (2×) and 1.52 and 1.43 and 1.26 (2×) and 1.32 and 1.33 (2×) | Peak Striatal:Occipital Ratio (peak SBR) (individual PD subjects, 2 head reconstruction): 1.28 (2×) and 1.27 (2×) and 1.25 and 1.41 and 1.46 and 1.66 and 1.53 and 1.26 and 1.36 and 1.32 and 1.43 and 1.37 and 1.39 | Peak Striatal:Occipital Ratio (peak SBR) (individual PD subjects, 3 head reconstruction): 1.30 (2×) and 1.25 and 1.44 (2×) and 1.74 and 1.60 and 1.33 and 1.34 and 1.45 (2×) and 1.35 and 1.39 and 1.28 and 1.43 | Peak Striatal:Occipital Ratio (peak SBR) (individual healthy controls, 1 head reconstruction): 1.49 and 1.57 and 1.79 and 1.47 and 1.56 and 1.63 and 1.64 and 1.86 and 1.52 and 1.50 and 1.66 and 1.51 | Peak Striatal:Occipital Ratio (peak SBR) (individual healthy controls, 2 head reconstruction): 1.66 and 1.67 and 1.95 and 1.62 and 1.68 and 1.79 and 1.77 and 2.10 and 1.59 and 1.55 and 1.84 and 1.61 | Peak Striatal:Occipital Ratio (peak SBR) (individual healthy controls, 3 head reconstruction): 1.81 (2×) and 1.79 and 2.06 and 1.69 and 1.90 and 1.93 and 2.30 and 1.71 and 1.68 and 1.86 and 1.77 | mean SBR (peak Striatal:Occipital Ratio) (mean of 12 healthy controls, 1 head): 1.60 | mean SBR (peak Striatal:Occipital Ratio) (mean of 12 healthy controls, 2 head): 1.74 | mean SBR (peak Striatal:Occipital Ratio) (mean of 12 healthy controls, 3 head): 1.86 | mean SBR (peak Striatal:Occipital Ratio) (mean of 15 PD subjects, 1 head): 1.33 | mean SBR (peak Striatal:Occipital Ratio) (mean of 15 PD subjects, 2 head): 1.37 | mean SBR (peak Striatal:Occipital Ratio) (mean of 15 PD subjects, 3 head): 1.41 | elimination from brain (most subjects, striatal and occipital regions): rapid elimination | time of peak SBR post injection (one and two head scenarios): ≥ 15 min
